From US7695930B2, “Method for the detection, identification and/or quantification of microoganisms with peptidase activity using phenoxazinone derivatives as enzyme substrates” (Biomerieux, priority 2003, dated 2010)
Read-outs that look alike come from different tables or passages of the source.

Columns and labels:
Conditions in all cases: 60 mg/l
Burkholderia cepacia 1 = system: Burkholderia cepacia 1
Experimental: (§1) 300 ml of Columbia medium were melted in a waterbath at 100° C. and autoclaved at 121° C. for 15 min. The product was then cooled to 50° C. in a waterbath.
(§2) This medium was separated into 3 flasks of 100 ml, and then, added at 50° C., as substrates, were those of Examples 4 and 6 for which the amino acid is β-alanine (respectively, β-alanine-9-amino-6-carbethoxybenzo[a]phenoxazin-5-one or β-Ala-ACAP and β-alanine-9-amino-6-chlorobenzo[a]phenoxazin-5-one or β-Ala-ACHP), solubilized in DMSO, according to the concentrations indicated in Table 5 below:
(§3) The medium was then poured into Petri dishes.
(§4) Nine microorganism strains derived from the Applicant's collection, suspended in physiological saline, were seeded onto the media prepared in point 14.1 above according to a multipoint inoculation in a proportion of 100 000 cfu/spot. The dishes were incubated at 37° C. for 48 hours. The colonies formed (one colony per strain) were examined visually after incubation for 24 and 48 hours.
(§5) The results are expressed in Table 6 hereinafter according to the rules and the nomenclature stated in paragraph 11.3 and where RP signifies pale pink.

Pseudomonas aeruginosa 1 = system: Pseudomonas aeruginosa 1
Experimental: as §1, §2, §3, §4, §5

[1] = system: Enteroccus faecalis (NCTC 775)
Experimental: as §1, §2, §3, §4, §5

Pseudomonas aeruginosa 2 = system: Pseudomonas aeruginosa 2
Experimental: as §1, §2, §3, §4, §5

Burkholderia cepacia 2 = system: Burkholderia cepacia 2
Experimental: as §1, §2, §3, §4, §5

Pseudomonas aeruginosa 3 = system: Pseudomonas aeruginosa 3
Experimental: as §1, §2, §3, §4, §5

[2] = system: Escherichia coli (NCTC 10418)
Experimental: as §1, §2, §3, §4, §5

Candida albicans (NCTC) = system: Candida albicans (NCTC)
Experimental: as §1, §2, §3, §4, §5

[3] = system: Enterobacter cloacae (NCTC 11936)
Experimental: as §1, §2, §3, §4, §5

Row | Substance | growth diameter (Burkholderia cepacia 1; 24 h) [mm] | growth diameter (Burkholderia cepacia 1; 48 h) [mm] | color of the colony (Pseudomonas aeruginosa 1; 24 h) | growth diameter (Pseudomonas aeruginosa 1; 24 h) [mm] | intensity of coloration, scale 0 to 4 (Pseudomonas aeruginosa 1; 24 h) | growth diameter (Pseudomonas aeruginosa 1; 48 h) [mm] | intensity of coloration, scale 0 to 4 (Pseudomonas aeruginosa 1; 48 h) | growth diameter ([1]; 24 h) [mm] | growth diameter ([1]; 48 h) [mm] | color of the colony (Pseudomonas aeruginosa 2; 24 h) | growth diameter (Pseudomonas aeruginosa 2; 24 h) [mm] | intensity of coloration, scale 0 to 4 (Pseudomonas aeruginosa 2; 24 h) | growth diameter (Pseudomonas aeruginosa 2; 48 h) [mm] | intensity of coloration, scale 0 to 4 (Pseudomonas aeruginosa 2; 48 h) | growth diameter (Burkholderia cepacia 2; 24 h) [mm] | growth diameter (Burkholderia cepacia 2; 48 h) [mm] | color of the colony (Pseudomonas aeruginosa 3; 24 h) | growth diameter (Pseudomonas aeruginosa 3; 24 h) [mm] | intensity of coloration, scale 0 to 4 (Pseudomonas aeruginosa 3; 24 h) | growth diameter (Pseudomonas aeruginosa 3; 48 h) [mm] | also measured
1 | β-alanine-9-amino-6-carbethoxybenzo[a]phenoxazin-5-one [β-Ala-ACAP] | 2 | 2 | R | 3 | 1 | 3 | 3 | 2 | 2 | R | 3 | 2 | 3 | 2 | 2 | 2 | R | 1 | 2 | 2 | color of the colony (Pseudomonas aeruginosa 1; 48 h): R; color of the colony (Pseudomonas aeruginosa 2; 48 h): R; color of the colony (Pseudomonas aeruginosa 3; 48 h): R; intensity of coloration, scale 0 to 4 (Pseudomonas aeruginosa 3; 48 h): 3; growth diameter ([2]; 24 h): 2 mm; growth diameter ([2]; 48 h): 3 mm; growth diameter (Candida albicans (NCTC); 24 h): 2 mm; growth diameter (Candida albicans (NCTC); 48 h): 2 mm; growth diameter ([3]; 24 h): 3 mm; growth diameter ([3]; 48 h): 3 mm
2 | β-alanine-9-amino-6-chlorobenzo[a]phenoxazin-5-one [β-Ala-ACHP] | 2 | 2 | R | 3 | 2 | 3 | 2 | 1 | 1 | R | 2 | 2 | 3 | 2 | 2 | 2 | R | 1 | 2 | 2 | intensity of coloration, scale 0 to 4 (Pseudomonas aeruginosa 3; 48 h): 2; growth diameter ([2]; 24 h): 2 mm; growth diameter ([2]; 48 h): 3 mm; growth diameter (Candida albicans (NCTC); 24 h): 2 mm; growth diameter (Candida albicans (NCTC); 48 h): 2 mm; growth diameter ([3]; 24 h): 2 mm; growth diameter ([3]; 48 h): 3 mm
